Experiment [1] deals with T1, p38/MK2 interaction (Homo sapiens, UniProt Q16539). The experiment can be described thus: TR-FRET ultra-high-throughput screening (uHTS), 1536-well, HEK293T lysate VF-p38α / GST-MK2. The class given is binding. More on the design: inhibition of p38/MK2 interaction, primary screen: concentration or dose not given beside the values. The settings on record: for 620 nm Fold over Control: fluorescence interference readout; for Pct of control: uHTS TR-FRET signal, Emory Enriched Library; for inhibition of p38/MK2 interaction, primary screen: relative to DMSO control, 1536-well.

Experiment [2] deals with T1, p38/MK2 interaction. The experiment can be described thus: TR-FRET assay with purified recombinant His-p38 and GST-MK2. The class given is binding. The settings on record: for IC50: purified His-p38 and GST-MK2, read-out: IC50, inhibition of p38/MK2 PPI (TR-FRET, recombinant purified proteins); for inhibition at 30 µM: read-out: inhibition of p38/MK2 PPI at 30 μM, recombinant purified proteins. How it is done:
ENSG00000112062, UniProt ID: Q16539-1) was cloned into a pMCSG7 vector and transformed into Escherichia coli strain BL21(DE3). […] The resuspended cells were lysed through sonication. The lysate was centrifuged for 20 min at 70,000g at 4 °C and the clarified supernatant was passed through a gravity column containing 2 mL Ni-NTA resin pre-equilibrated with equilibration buffer. The resin was then washed with 25 column volumes of equilibration buffer supplemented with 40 mM imidazole, and the protein was eluted with equilibration buffer supplemented with 200 mM imidazole. […] The purity of the enzyme was verified by sodium dodecyl sulfate-polyacrylamide gel electrophoresis (SDS-PAGE) with Coomassie staining, aliquots flash frozen in liquid nitrogen, and stored at -80 °C.

Experiment [3] deals with HMC3 microglial cells. The experiment can be described thus: qRT-PCR of LPS-induced cytokine expression in HMC3 microglial cells. The experiment is classed as cell-based, human. The settings on record: HMC3, 5 μM compound 1 h before 100 ng/mL LPS 4 h. How it is done:
HMC3 cells were treated with 100 ng/mL E. coli LPS (Sigma-Aldrich, catalog no. L4005) for 4 h in DMEM media. […] Following pretreatment, iMGLs were challenged with 100 ng/mL LPS and 20 ng/mL interferon-γ (IFN-γ) for 24 h to induce an inflammatory response. At the end of the stimulation, cell lysates were collected for qPCR analysis of TNF-α […] gene expression. Total RNA isolation from cell samples was conducted using the RNeasy Plus kit (Qiagen, catalog no. 74134) according to manufacturer instructions and treated with DNase I (Invitrogen, catalog no. 18068-015). Extracted RNA was quantified using the Nanodrop One Spectrophotometer (Thermo Scientific) and then reverse-transcribed into cDNA in equal quantity (<1000 ng/reaction) with the SuperScript III System (Invitrogen, catalog no. 18080-051) following manufacturer directions. cDNA sample was treated with RNase H (Invitrogen, catalog no. 18021014) and diluted to 4 ng/μL equivalent of the starting total RNA. qPCR was performed in 96-well PCR plates (BioRad, catalog no. HSP9601) using the Realplex4Mastercycler (Eppendorf). Each reaction well combines 5 μL cDNA sample, 10 μL 2X SYBR Green Supermix (BioRad, catalog no. 1725271), 1 μL 5 μM primer mix for each target gene, and nuclease-free water up to 20 μL. […] The primer sequences used were: TNFα forward [NT], reverse [NT]-6 forward [NT], reverse [NT]-1β forward [NT], reverse [NT] Each gene was expression-normalized against the housekeeping gene GAPDH with the primer sequences: forward [NT], reverse [NT] Primers were obtained from Integrated DNA Technologies in lyophilized form. The cycler program was set to denaturation at 95 °C for 15 s, followed by annealing and extension at 60 °C for 60 s, repeated for 40 PCR cycles. Melting curve analyses were performed for each sample to ensure primer specificity. The experiment was performed in biological quadruplicates and technical quadruplicates.

For experiment [4], the target named is T1, p38/MK2 interaction. The experiment can be described thus: Cell lysate-based TR-FRET (VF-p38 / GST-MK2, HEK293T lysate), dose-response. The experiment is classed as binding. The settings on record: read-out: IC50, p38/MK2 PPI, cell lysate-based TR-FRET.
Experiment [5] deals with VF-tagged p38 / His-tagged MK2 346–400 docking peptide (Homo sapiens, UniProt Q16539). The experiment can be described thus: Cell lysate-based TR-FRET competition assay, VF-p38 / His-MK2 346–400 docking peptide. The settings on record: HEK293T lysate TR-FRET; read-out: IC50, binding of His-MK2 346–400 docking peptide to VF-p38.
Experiment [6] deals with T2, His-tagged p38α (MAPK14), purified recombinant (human, UniProt Q16539-1 1-360).
T2 construct: also called His-p38; His-p38α; source: E. coli BL21(DE3), purified (Ni-NTA, S200 size exclusion), in-house; or bought: Abcam AB271606; for the FP assay obtained from research collaborators
The experiment can be described thus: FRET or BRET; TR-FRET with purified His-p38α (10 nM) and GST-MK2 (1 uM), anti-His-d2 and anti-GST-Tb antibodies; 20 mM Tris-HCl pH 7.0, 50 mM NaCl, 0.01% NP-40; room temperature, 2 h; peptides or compounds added as competitors. As to conditions: both partners purified.

In experiment [7] the target is T2, His-tagged p38α (MAPK14), purified …. The experiment can be described thus: fluorescence polarisation; 10 nM FITC-MK2 peptide with His-p38α serially diluted 2-fold from a 5 uM working solution; 20 mM Tris-HCl pH 7.0, 50 mM NaCl, 0.01% NP-40; 384-well plate. As to conditions: both partners purified.

The values below come from PMC12751014, “Non-Catalytic Inhibitors of the p38/MK2 Interface: Repurposing Approved Drugs to Target Neuroinflammation in Alzheimer’s Disease” (Journal of Medicinal Chemistry, 2025).

“Also recorded” adds a separate entry of the source. Where no end group is shown, it is not given here.

T1 sequence (Q16539 whole entry): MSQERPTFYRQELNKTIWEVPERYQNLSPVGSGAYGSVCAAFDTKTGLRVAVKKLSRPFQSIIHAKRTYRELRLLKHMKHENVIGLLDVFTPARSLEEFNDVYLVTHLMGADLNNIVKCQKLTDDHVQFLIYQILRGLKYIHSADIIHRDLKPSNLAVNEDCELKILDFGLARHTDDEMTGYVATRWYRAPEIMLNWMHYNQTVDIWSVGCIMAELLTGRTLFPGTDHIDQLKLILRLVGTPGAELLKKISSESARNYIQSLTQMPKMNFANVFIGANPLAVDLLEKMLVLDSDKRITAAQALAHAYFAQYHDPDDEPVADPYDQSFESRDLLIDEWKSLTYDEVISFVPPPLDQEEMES
VF-tagged p38 / His-tagged MK2 346–400 docking peptide, sequence (Q16539 whole entry): as above
T2 sequence (Q16539 whole entry): as above

With `CCCCCCCCCCCCc1ccc(S(=O)(=O)Nc2nncs2)cc1` [PHT-427, 4-dodecyl-N-(1,3,4-thiadiazol-2-yl)benzenesulfonamide], in experiment [1], the “620 nm Fold over Control” value amounted to 0.94 and the Pct of control was -2.49 Pct of control. As for `C[C@@H]1[C@H](O)[C@@H](C)/C=C/C=C/C=C/C=C/C=C/C=C/C=C/[C@H](O[C@@H]2O[C@H](C)[C@@H](O)[C@H](N)[C@@H]2O)C[C@@H]2O[C@](O)(C[C@@H](O)C[C@@H](O)[C@H](O)CC[C@@H](O)C[C@@H](O)CC(=O)O[C@H]1C)C[C@H](O)[C@H]2C(=O)O` [amphotericin B], the “inhibition of p38/MK2 interaction, primary screen” value (“inhibition of p38/MK2 interaction” for short) in experiment [1] came out at 51%. On to `Cc1cn(-c2cc(NC(=O)c3ccc(O)c(Nc4nccc(-c5cccnc5)n4)c3)cc(C(F)(F)F)c2)cn1` [Compound 4], for which, in experiment [2], the IC50 was 8.24 µM. For `CN1CCc2cccc3c2[C@H]1Cc1ccc(O)c(O)c1-3` [apomorphine], in experiment [1], the “inhibition of p38/MK2 interaction” value came out at 56%. Consider `CN(C)[C@@H]1C(O)=C(C(N)=O)C(=O)[C@@]2(O)C(O)=C3C(=O)c4c(O)cccc4[C@@](C)(O)[C@H]3[C@H](O)[C@@H]12` [oxytetracycline], for which, in experiment [1], the “inhibition of p38/MK2 interaction” value was determined as 51%.

Regarding `CCOc1nc2cccc(C(=O)OC(C)OC(=O)OC3CCCCC3)c2n1Cc1ccc(-c2ccccc2-c2nnn[nH]2)cc1` (stereo not drawn) [candesartan cilexetil], in experiment [1], the “inhibition of p38/MK2 interaction” value was found to be 68%.

Consider `O=c1ncn2nc(Sc3ccc(F)cc3F)ccc2c1-c1c(Cl)cccc1Cl` [VX-745], for which, in experiment [2] (recombinant p38 and MK2 purified from E. coli), the “disruption of p38/MK2 interaction (TR-FRET signal)” value is “failed to disrupt the interaction; also recorded: failed to reduce the TR-FRET signal”. For `COc1cc2nc(N3CCN(C(=O)C4CCCO4)CC3)nc(N)c2cc1OC` (stereo not drawn) [terazosin], the IC50 in experiment [2] turned out to be 6.2 µM; in experiment [4], 10.5 µM; in experiment [5] it was 8.3 µM. Besides, in experiment [1], the “inhibition of p38/MK2 interaction” value was found to be 77%. Further, the “LPS-induced TNF-α, IL-6, and IL-1β expression” value (shortened to “LPS-induced TNF-α”) in experiment [3] is listed as “significantly (p-values <0.05) suppressed”. In the case of `COc1ccc(CC(=O)Nc2cc(-n3cnc(C)c3)cc(C(F)(F)F)c2)nc1` [Compound 10], in experiment [2], the inhibition at 30 µM was below 50%. On to `COc1cc2nc(N3CCN(C(=O)C4COc5ccccc5O4)CC3)nc(N)c2cc1OC` (stereo not drawn) [doxazosin], for which the IC50 was determined as 4.4 µM in experiment [2], 30.1 µM in experiment [4] and 4.6 µM in experiment [5]. Also, the “inhibition of p38/MK2 interaction” value in experiment [1] turned out to be 58%. For the same molecule, in experiment [3], the “LPS-induced TNF-α” value was “significantly (p-values <0.05) suppressed”. Take `Cc1cn(-c2cc(NC(=O)c3[nH]cnc3C#N)cc(C(F)(F)F)c2)cn1` [Compound 9]: the inhibition at 30 µM in experiment [2] is below 50%. `CNC(=O)c1ccc(CCNC(=O)C(=O)Nc2cc(-n3cnc(C)c3)cc(C(F)(F)F)c2)cc1` [Compound 6]: the IC50 in experiment [2] is 21.3 µM. With `Cc1cn(-c2cc(NC(=O)Nc3nnc(-c4ccncc4)s3)cc(C(F)(F)F)c2)cn1` [Compound 7], the inhibition at 30 µM in experiment [2] is below 50%. Consider `Cc1cn(-c2cc(C(=O)Nc3ccc(C)c(Nc4nccc(-c5cccnc5)n4)c3)cc(C(F)(F)F)c2)cn1` [Compound 3], for which the IC50 in experiment [2] amounted to 7.45 µM.

`C=C(c1ccc(C(=O)O)cc1)c1cc2c(cc1C)C(C)(C)CCC2(C)C` [bexarotene]: in experiment [1], the “inhibition of p38/MK2 interaction” value is reported as 74%. For the molecule `Cc1cn(-c2cc(NC(=O)C(=O)NCc3cccc(C(N)=O)c3)cc(C(F)(F)F)c2)cn1` [Compound 8], the inhibition at 30 µM in experiment [2] is below 50%. Consider `CCc1cn(-c2cc(NC(=O)c3ccc(C)c(Nc4nccc(-c5cccnc5)n4)c3)cc(C(F)(F)F)c2)cn1` [Compound 2], for which, in experiment [2], the IC50 is 2.27 µM.

As for `C=CC(=O)Nc1ccc2ncnc(Nc3ccc(OCc4cccc(F)c4)c(Cl)c3)c2c1` [AST-1306, N-[4-[3-chloro-4-[(3-fluorophenyl)methoxy]anilino]quinazolin-6-yl]prop-2-enamide;4-methylbenzenesulfonic acid], in experiment [1], the “620 nm Fold over Control” value came out at 1.01 and the Pct of control is 9.2 Pct of control. As to `Cc1cn(-c2cc(NC(=O)c3ccc(C)c(Nc4ncccn4)c3)cc(C(F)(F)F)c2)cn1` [Compound 5], the IC50 in experiment [2] worked out at 11.5 µM.

Consider `COc1cc2nc(N(C)CCCNC(=O)C3CCCO3)nc(N)c2cc1OC` (stereo not drawn) [alfuzosin], for which the IC50 in experiment [2] amounted to 6.9 µM; in experiment [4] it was 10 µM; in experiment [5] it was 14.4 µM. Further, the “inhibition of p38/MK2 interaction” value in experiment [1] is given as 82%. The “LPS-induced TNF-α” value in experiment [3] is listed as “significantly (p-values <0.05) suppressed”. For `CS(=O)(=O)c1ccc(C2=C(c3ccccc3)C(=O)OC2)cc1` [rofecoxib], in experiment [1], the “inhibition of p38/MK2 interaction” value amounted to 73%. For the molecule `Cc1cc(C(C#N)c2ccc(Cl)cc2)c(Cl)cc1NC(=O)c1cc(I)cc(I)c1O` (stereo not drawn) [closantel], the “inhibition of p38/MK2 interaction” value in experiment [1] stood at 53%.

B1: FITC-MK2 369–382 peptide (peptide, UniProt P49137 369-382, looked up)
peptide: QIKIKKIEDASNPL
modifications: not fully specified (N-terminus); also: FITC label (position not given here)
notes: MK2 (MAPKAPK2) C-terminal docking motif, residues 369-382 as named in the text; 369-382 would be 14 residues; the legend's I370-L382 is 13 residues; also called I370-L382; truncated 13-residue peptide
For the molecule B1, the IC50 in experiment [6] is 4.26 µM.

B2: FITC-MK2 370–393 peptide (peptide, UniProt P49137 370-393, looked up)
peptide: IKIKKIEDASNPLLLKRRKKARAL
modifications: not fully specified (N-terminus); also: FITC label (position not given here)
notes: MK2 (MAPKAPK2) C-terminal docking motif, residues 370-393 (I370-L393); the methods name the peptide 370-390; also called I370–L393; FITC conjugated MK2 370–390 peptide (methods); source: synthetic peptide, bought: GenScript
For the molecule B2, in experiment [6], the IC50 was found to be 0.42 µM. For the same molecule, the EC50 in experiment [7] was 0.0269 µM.
